Source: patent US9522881B2, “Hydroxyindole carboxylic acid based inhibitors for oncogenic Src homology-2 domain containing protein tyrosine phosphatase-2 (SHP2)” (Indiana University Research and Technology Corporation, priority 2013, dated 2016)

Each compound was assayed against SHP2 (Homo sapiens (Human), UniProt Q06124) (assay: SHP2-catalyzed hydrolysis of p-nitrophenyl phosphate (pNPP)). Details: not given.
Type: biochemical
Procedure: Libraries 11a-d were screened at ˜5 μM for SHP2 inhibitors without further purification. The ability of the library components to inhibit the SHP2-catalyzed hydrolysis of p-nitrophenyl phosphate (pNPP) was evaluated at pH 7.0 and 25° C. More particularly, the phosphatase activity of SHP2 was assayed using p-nitrophenyl phosphate (pNPP) as a substrate at 25° C. in 50 mM 3,3-dimethylglutarate buffer, pH 7.0, containing 1 mM EDTA with an ionic strength of […] adjusted by NaCl. The libraries were screened in a 96-well format at 5 μM compound concentration. […] The nonenzymatic hydrolysis of pNPP was corrected by measuring the control without the addition of enzyme. The amount of product p-nitrophenol was determined from the absorbance at 405 nm detected by a Spectra MAX340 microplate spectrophotometer (Molecular Devices, Sunnyvale, Calif.) using a molar extinction coefficient of 18,000 M^−1 cm^−1. […] IC50 values for selected resynthesized and purified hits were calculated by fitting the absorbance at 405 nm versus inhibitor concentration to the following equation: AI/A0=IC50/(IC50+[I]) where AI is the absorbance at 405 nm of the sample in the presence of the inhibitor; A0 is the absorbance at 405 nm in the absence of inhibitor; and [I] is the concentration of the inhibitor.

SHP2 inhibition, in words	IC50 for SHP2, times higher than that of 11a-1	SMILES
strongly inhibited		Cn1c(-c2cccc(NC(=O)C(=O)Nc3ccc(-c4ccccc4)cc3)c2)c(I)c2cc(C(=O)O)c(O)cc21 [11a-2, 2-(3-(2-([1,1′-biphenyl]-4-ylamino)-2-oxoacetamido)phenyl)-6-hydroxy-3-iodo-1-methyl-1H-indole-5-carboxylic acid]
submicromolar		Cn1c(-c2cccc(NC(=O)C(=O)Nc3ccc(OCc4ccccc4)c(Cl)c3)c2)c(I)c2cc(C(=O)O)c(O)cc21 [11a-3, 2-(3-(2-((4-(benzyloxy)-3-chlorophenyl)amino)-2-oxoacetamido)phenyl)-6-hydroxy-3-iodo-1-methyl-1H-indole-5-carboxylic acid]
submicromolar		Cn1c(-c2cccc(NC(=O)C(=O)Nc3cccc(OCc4ccccc4)c3)c2)c(I)c2cc(C(=O)O)c(O)cc21 [11a-6, 2-(3-(2-((3-(benzyloxy)phenyl)amino)-2-oxoacetamido)phenyl)-6-hydroxy-3-iodo-1-methyl-1H-indole-5-carboxylic acid]
	more than 10 times	Cn1c(-c2cccc(NC(=O)CCC(=O)Nc3ccc(-c4ccsc4)cc3)c2)c(I)c2cc(C(=O)O)c(O)cc21 [11c-1, 6-hydroxy-3-iodo-1-methyl-2-(3-(4-oxo-4-((4-(thiophen-3-yl)phenyl)amino)butanamido)phenyl)-1H-indole-5-carboxylic acid]

SMILES	SHP2 inhibition, in words	IC50 for SHP2, times higher than that of 11a-1
Cn1c(-c2cccc(NC(=O)C(=O)Nc3cccc(-c4ccccc4)c3)c2)c(I)c2cc(C(=O)O)c(O)cc21 [11a-5, 2-(3-(2-([1,1′-biphenyl]-3-ylamino)-2-oxoacetamido)phenyl)-6-hydroxy-3-iodo-1-methyl-1H-indole-5-carboxylic acid]	strongly inhibited	

Same assay, conditions: pNPP substrate, pH 7.0, 25° C.

SMILES	IC50 [nM]
Cn1c(-c2cccc(NC(=O)CCC(=O)O)c2)c(I)c2cc(C(=O)O)c(O)cc21 [10c, 2-(3-(3-carboxypropanamido)phenyl)-6-hydroxy-3-iodo-1-methyl-1H-indole-5-carboxylic acid]	56000
Cn1c(-c2cccc(NC(=O)C(=O)Nc3ccc(OCc4ccccc4)c(Cl)c3)c2)c(I)c2cc(C(=O)O)c(O)cc21 [11a-3, 2-(3-(2-((4-(benzyloxy)-3-chlorophenyl)amino)-2-oxoacetamido)phenyl)-6-hydroxy-3-iodo-1-methyl-1H-indole-5-carboxylic acid]	660 ± 30
Cn1c(-c2cccc(NC(=O)C(=O)Nc3nc4ccc(Br)cc4s3)c2)c(I)c2cc(C(=O)O)c(O)cc21 [11a-4, 2-(3-(2-((6-bromobenzo[d]thiazol-2-yl)amino)-2-oxoacetamido)phenyl)-6-hydroxy-3-iodo-1-methyl-1H-indole-5-carboxylic acid]	760 ± 110
Cn1c(-c2cccc(NC(=O)C(=O)Nc3cccc(-c4ccccc4)c3)c2)c(I)c2cc(C(=O)O)c(O)cc21 [11a-5, 2-(3-(2-([1,1′-biphenyl]-3-ylamino)-2-oxoacetamido)phenyl)-6-hydroxy-3-iodo-1-methyl-1H-indole-5-carboxylic acid]	770 ± 150
Cn1c(-c2cccc(NC(=O)C(=O)Nc3cccc(OCc4ccccc4)c3)c2)c(I)c2cc(C(=O)O)c(O)cc21 [11a-6, 2-(3-(2-((3-(benzyloxy)phenyl)amino)-2-oxoacetamido)phenyl)-6-hydroxy-3-iodo-1-methyl-1H-indole-5-carboxylic acid]	860 ± 140
Cn1c(-c2cccc(NC(=O)C(=O)N3CCc4cc(Br)ccc43)c2)c(I)c2cc(C(=O)O)c(O)cc21 [11a-7, 2-(3-(2-(5-bromoindolin-1-yl)-2-oxoacetamido)phenyl)-6-hydroxy-3-iodo-1-methyl-1H-indole-5-carboxylic acid]	1050 ± 90
Cn1c(-c2cccc(NC(=O)C(=O)Nc3ccccc3-c3nc4ccccc4[nH]3)c2)c(I)c2cc(C(=O)O)c(O)cc21 [11a-9, 2-(3-(2-((2-(1H-benzo[d]imidazol-2-yl)phenyl)amino)-2-oxoacetamido)phenyl)-6-hydroxy-3-iodo-1-methyl-1H-indole-5-carboxylic acid]	1250 ± 60
Cn1c(-c2cccc(NC(=O)C(=O)Nc3cccc(Cl)c3)c2)c(I)c2cc(C(=O)O)c(O)cc21 [11a-11, 2-(3-(2-((3-chlorophenyl)amino)-2-oxoacetamido)phenyl)-6-hydroxy-3-iodo-1-methyl-1H-indole-5-carboxylic acid]	1460 ± 450
Cn1c(-c2cccc(NC(=O)C(=O)Nc3ccc(-n4ccnc4)cc3)c2)c(I)c2cc(C(=O)O)c(O)cc21 [11a-12, 2-(3-(2-((4-(1H-imidazol-1-yl)phenyl)amino)-2-oxoacetamido)phenyl)-6-hydroxy-3-iodo-1-methyl-1H-indole-5-carboxylic acid]	1490 ± 150
Cn1c(-c2cccc(NC(=O)C(=O)Nc3ccc(Cl)c(C(F)(F)F)c3)c2)c(I)c2cc(C(=O)O)c(O)cc21 [11a-13, 2-(3-(2-((4-chloro-3-(trifluoromethyl)phenyl)amino)-2-oxoacetamido)phenyl)-6-hydroxy-3-iodo-1-methyl-1H-indole-5-carboxylic acid]	1760 ± 80
Cn1c(-c2cccc(NC(=O)C(=O)Nc3nnc(-c4ccccc4)s3)c2)c(I)c2cc(C(=O)O)c(O)cc21 [11a-14, 6-hydroxy-3-iodo-1-methyl-2-(3-(2-oxo-2-((5-phenyl-1,3,4-thiadiazol-2-yl)amino)acetamido)phenyl)-1H-indole-5-carboxylic acid]	1790 ± 150
Cn1c(-c2cccc(NC(=O)C(=O)Nc3nccs3)c2)c(I)c2cc(C(=O)O)c(O)cc21 [11a-16, 6-hydroxy-3-iodo-1-methyl-2-(3-(2-oxo-2-(thiazol-2-ylamino)acetamido)phenyl)-1H-indole-5-carboxylic acid]	2310 ± 280
Cn1c(-c2cccc(NC(=O)C(=O)Nc3cccc(OC(F)(F)F)c3)c2)c(I)c2cc(C(=O)O)c(O)cc21 [11a-17, 6-hydroxy-3-iodo-1-methyl-2-(3-(2-oxo-2-((3-(trifluoromethoxy)phenyl)amino)acetamido)phenyl)-1H-indole-5-carboxylic acid]	2390 ± 150
Cn1c(-c2cccc(NC(=O)C(=O)Nc3ccccc3-c3ccc(CO)o3)c2)c(I)c2cc(C(=O)O)c(O)cc21 [11a-23, 6-hydroxy-2-(3-(2-((2-(5-(hydroxymethyl)furan-2-yl)phenyl)amino)-2-oxoacetamido)phenyl)-3-iodo-1-methyl-1H-indole-5-carboxylic acid]	370 ± 10
Cn1c(-c2cccc(NC(=O)CCC(=O)Nc3ccc(-c4ccsc4)cc3)c2)c(I)c2cc(C(=O)O)c(O)cc21 [11c-1, 6-hydroxy-3-iodo-1-methyl-2-(3-(4-oxo-4-((4-(thiophen-3-yl)phenyl)amino)butanamido)phenyl)-1H-indole-5-carboxylic acid]	2300
Cn1c(-c2cccc(NC(=O)CCC(=O)Nc3ccc(Oc4ccccc4)cc3)c2)c(I)c2cc(C(=O)O)c(O)cc21 [11c-2, 6-hydroxy-3-iodo-1-methyl-2-(3-(4-oxo-4-((4-phenoxyphenyl)amino)butanamido)phenyl)-1H-indole-5-carboxylic acid]	3600 ± 300
Cn1c(-c2cccc(NC(=O)CCC(=O)Nc3ccc(OCc4ccccc4)c(Cl)c3)c2)c(I)c2cc(C(=O)O)c(O)cc21 [11c-3, 2-(3-(4-((4-(benzyloxy)-3-chlorophenyl)amino)-4-oxobutanamido)phenyl)-6-hydroxy-3-iodo-1-methyl-1H-indole-5-carboxylic acid]	5000 ± 900

Second part, the compound after the results:

IC50 [nM]	SMILES
620 ± 50	Cn1c(-c2cccc(NC(=O)C(=O)Nc3ccc(-c4ccccc4)cc3)c2)c(I)c2cc(C(=O)O)c(O)cc21 [11a-2, 2-(3-(2-([1,1′-biphenyl]-4-ylamino)-2-oxoacetamido)phenyl)-6-hydroxy-3-iodo-1-methyl-1H-indole-5-carboxylic acid]
1200 ± 210	Cn1c(-c2cccc(NC(=O)C(=O)Nc3ccc(I)cc3)c2)c(I)c2cc(C(=O)O)c(O)cc21 [11a-8, 6-hydroxy-3-iodo-2-(3-(2-((4-iodophenyl)amino)-2-oxoacetamido)phenyl)-1-methyl-1H-indole-5-carboxylic acid]
1840 ± 90	Cn1c(-c2cccc(NC(=O)C(=O)Nc3ccc(F)cc3)c2)c(I)c2cc(C(=O)O)c(O)cc21 [11a-15, 2-(3-(2-((4-fluorophenyl)amino)-2-oxoacetamido)phenyl)-6-hydroxy-3-iodo-1-methyl-1H-indole-5-carboxylic acid]
2730 ± 550	Cn1c(-c2cccc(NC(=O)C(=O)Nc3cccc(Br)c3)c2)c(I)c2cc(C(=O)O)c(O)cc21 [11a-18, 2-(3-(2-((3-bromophenyl)amino)-2-oxoacetamido)phenyl)-6-hydroxy-3-iodo-1-methyl-1H-indole-5-carboxylic acid]
4660 ± 500	Cn1c(-c2cccc(NC(=O)C(=O)Nc3cccc(F)c3)c2)c(I)c2cc(C(=O)O)c(O)cc21 [11a-19, 2-(3-(2-((3-fluorophenyl)amino)-2-oxoacetamido)phenyl)-6-hydroxy-3-iodo-1-methyl-1H-indole-5-carboxylic acid]
5420 ± 1010	Cn1c(-c2cccc(NC(=O)C(=O)Nc3cccc(I)c3)c2)c(I)c2cc(C(=O)O)c(O)cc21 [11a-20, 6-hydroxy-3-iodo-2-(3-(2-((3-iodophenyl)amino)-2-oxoacetamido)phenyl)-1-methyl-1H-indole-5-carboxylic acid]
220 ± 10	Cn1c(-c2cccc(NC(=O)C(=O)Nc3ccc(-c4ccc(C#N)cc4)cc3)c2)c(I)c2cc(C(=O)O)c(O)cc21 [11a-21, 2-(3-(2-((4′-cyano-[1,1′-biphenyl]-4-yl)amino)-2-oxoacetamido)phenyl)-6-hydroxy-3-iodo-1-methyl-1H-indole-5-carboxylic acid]
310 ± 20	Cn1c(-c2cccc(NC(=O)C(=O)Nc3ccc(-c4cccc(C#N)c4)cc3)c2)c(I)c2cc(C(=O)O)c(O)cc21 [11a-22, 2-(3-(2-((3′-cyano-[1,1′-biphenyl]-4-yl)amino)-2-oxoacetamido)phenyl)-6-hydroxy-3-iodo-1-methyl-1H-indole-5-carboxylic acid]
380 ± 10	Cn1c(-c2cccc(NC(=O)C(=O)Nc3cccc(-c4ccco4)c3)c2)c(I)c2cc(C(=O)O)c(O)cc21 [11a-24, 2-(3-(2-((3-(furan-2-yl)phenyl)amino)-2-oxoacetamido)phenyl)-6-hydroxy-3-iodo-1-methyl-1H-indole-5-carboxylic acid]
420 ± 20	Cn1c(-c2cccc(NC(=O)C(=O)Nc3cccc(-c4ccc(C#N)cc4)c3)c2)c(I)c2cc(C(=O)O)c(O)cc21 [11a-25, 2-(3-(2-((4′-cyano-[1,1′-biphenyl]-3-yl)amino)-2-oxoacetamido)phenyl)-6-hydroxy-3-iodo-1-methyl-1H-indole-5-carboxylic acid]
630 ± 40	Cn1c(-c2cccc(NC(=O)C(=O)Nc3cccc(-c4ccsc4)c3)c2)c(I)c2cc(C(=O)O)c(O)cc21 [11a-26, 6-hydroxy-3-iodo-1-methyl-2-(3-(2-oxo-2-((3-(thiophen-3-yl)phenyl)amino)acetamido)phenyl)-1H-indole-5-carboxylic acid]
